From patent publication US6046228A, “Anti-viral pharmaceutical compositions containing saturated 1,2-dithiaheterocyclic compounds and uses thereof” (priority 1999, dated 2000)

Assays:
HIV-1 6R(AZT^R) = assay: XTT cytopathicity assay, AZT-resistant 6R; assay type: cell-based; conditions: MT-4, 6R(AZT^R)
Protocol: (§1) Initial anti-HIV screening was performed with CEM-SS cells and HIV-1RFusing the XTT cytoprotection assay as previously described (Weislow et al., J. National Cancer Inst. 81: 577-586, (1989)). HIV-1 isolates included common laboratory stains (RF, IIIB and MN), as well as a panel of HIV-1 clinical isolates (Cushman et al., J. Med. Chem. 37: 3040-3050, (1994)). The pyridone-resistant HIV-1A17 isolate (Nunberg et al., J. Virol., 65: 4887-4892 (1991)) was obtained from Emilio Emini at Merck Sharpe and Dohme Laboratories. Phytohemagglutinin-stimulated human peripheral blood lymphocytes (PBLs) and fresh monocyte-macrophage (Mono/MF) cultures were prepared and utilized in antiviral assays as previously described (Rice et al., Proc. Nat'l. Academy Science, USA 90: 9721-9724, (1993)); (Cushman et al., J. Med. Chem. 37: 3040-3050, (1994)). EC50 values for these cultures indicate the drug concentration that provided a 50% reduction in viral p24 production. […] The compounds can be synthesized according to the teachings of Singh et al., Sulfur Letters 8: 107-114, (1988). The 4,5-cis-dihydroxy(1,1-dioxy-1,2,-dithiohexane) compound (NSC 624151) has been abbreviated as 624151 for convenience. […]

HIV-1 N119(Nev^R) = assay: XTT cytopathicity assay, nevirapine-resistant N119; assay type: cell-based; conditions: CEM-SS
Protocol: as §1

HIV-1 Calo-139 = assay: XTT cytopathicity assay, drug resistant HIV-1; assay type: cell-based; conditions: MT-2, Calo-139
Protocol: (§2) Initial anti-HIV screening was performed with CEM-SS cells and HIV-1RFusing the XTT cytoprotection assay as previously described (Weislow et al., J. National Cancer Inst. 81: 577-586, (1989)). HIV-1 isolates included common laboratory stains (RF, IIIB and MN), as well as a panel of HIV-1 clinical isolates (Cushman et al., J. Med. Chem. 37: 3040-3050, (1994)). The pyridone-resistant HIV-1A17 isolate (Nunberg et al., J. Virol., 65: 4887-4892 (1991)) was obtained from Emilio Emini at Merck Sharpe and Dohme Laboratories. Phytohemagglutinin-stimulated human peripheral blood lymphocytes (PBLs) and fresh monocyte-macrophage (Mono/MF) cultures were prepared and utilized in antiviral assays as previously described (Rice et al., Proc. Nat'l. Academy Science, USA 90: 9721-9724, (1993)); (Cushman et al., J. Med. Chem. 37: 3040-3050, (1994)). EC50 values for these cultures indicate the drug concentration that provided a 50% reduction in viral p24 production. […] The compounds can be synthesized according to the teachings of Singh et al., Sulfur Letters 8: 107-114, (1988). The 4,5-cis-dihydroxy(1,1-dioxy-1,2,-dithiohexane) compound (NSC 624151) has been abbreviated as 624151 for convenience. MT-2, MT-4, U1, HeLa-CD4-LTR-β-gal and 174xCEM cells were obtained from the AIDS Research and Reference Program (National Institute of Allergy and Infectious Disease, National Institutes of Health, Bethesda, Md. USA), as were the HIV-2MS and the AZT-resistant HIV-1G910-6 isolates.
(§3) ^a Anti-HIV studies utilizing lymphocytederived cell lines were
(§4) performed using the XTT cytopathicity assay, while antiviral assays

HIV-1 DPS-181 = assay: XTT cytopathicity assay, drug resistant HIV-1; assay type: cell-based; conditions: MT-2, DPS-181
Protocol: as §2, §3, §4

HIV-1 HEPT-236 = assay: XTT cytopathicity assay, drug resistant HIV-1; assay type: cell-based; conditions: MT-2, HEPT-236
Protocol: as §2, §3, §4

HIV-1 OC-100 = assay: XTT cytopathicity assay, drug resistant HIV-1; assay type: cell-based; conditions: MT-2, OC-100
Protocol: as §2, §3, §4

HIV-1 UC38-181 = assay: XTT cytopathicity assay, drug resistant HIV-1; assay type: cell-based; conditions: MT-2, UC38-181
Protocol: as §2, §3, §4

[1] = tested on: attachment of HIV-1 to fresh human PBLs; assay: virus attachment assay, HIV-1RF to PBLs (p24-based); assay type: cell-based
Protocol: Binding of HIV-1RF to PBLs was measured by a p24-based assay (Rice, et al., Proc. Nat'l. Academy of Science USA 90: 9721-9724, (1993)). Briefly, 5×10^5 PBLs were incubated with a concentrated stock of virus for 30 min. at 37° C. in the absence or presence of various concentrations of 624151, the unbound virus was washed away, and the cell-associated virus was solubilized in 1% Triton X-100, 1% BSA and analyzed by the p24 antigen capture assay as previously described. The binding of gp120to CD4 was analyzed using an antigen capture ELISA. All steps of the assay were carried out according to the manufacturer's protocols.
^.dagger. Attachment of HIV1 to fresh human PBLs, binding of gp120 to […]

[2] = target: T1, p7NC protein in intact HIV-1MN virions (HIV-1 M:B_MN, UniProt P05888); assay: p7NC immunoblot of treated intact virions, non-reducing SDS-PAGE; assay type: biochemical; conditions: for detectable virion p7NC / cross-linkage of virion NC proteins: HIV-1MN, FIG. 2(A)
T1 construct: cut from Gag polyprotein Pr55gag (also Gag-Pol Pr160)
Protocol: Fluorescence measurements of the Trp^37 residue in the C-terminal zinc finger of the recombinant HIV-1 p7NC protein were performed as previously described (Rice et al., Science 270:1194, 1995). The p7NC protein was prepared at 20 μg/ml in 10 mM sodium phosphate buffer (pH 7.0), treated with 25 μM of each compound, then after indicated time intervals the samples were diluted 1/10 in 10 mM sodium phosphate buffer (pH 7.0) and the fluorescence intensity measured. The excitation and emission wavelengths utilized with the Shimadzu RF5000 spectrofluorimeter were 280 nm and 351 nm, respectively. In an alternate assay, the zinc-selective fluorescent probe N-(6-methoxy-8quinolyl-)-p-toluenesulfonamide (TSQ, Molecular Probes, Eugene, Oreg.) originally described by Fredrickson (J. Neurosci. Meth. 20:91, 1987) was utilized to measure zinc released from the p7NC protein in vitro. Briefly, 2 μM recombinant HIV-1 p7NC protein in 10 mM sodium phosphate buffer, pH 7.0, 10% glycerol was treated with 10 μM 624151 ([…] total volume in 96-well plates), and the time-dependent increase in fluorescence was measured on a Labsystems Fluoroskan II (360 nm excitation filter and 460 nm emission filter) over a period of 2 hours. Induction of alterations of p7NC proteins within intact virions involved treatment of HIV-1MN for 1 hour at 37° C. with 25 μM test compound. Samples were centrifuged 1 hour at 4° C. under 18,000×g to pellet the virus from the drug. Virus pellets were resolved by non-reducing SDS-PAGE and analyzed by immunoblot using monospecific rabbit antisera to the purified p7NC protein.
In order to determine if the 624151 entered intact HIV-1 virions and affected the p7NC protein zinc fingers, purified HIV-1MN was treated with increasing concentrations of the compound and the viral proteins were then separated by non-reducing SDS-PAGE and immunoblotted with monospecific antisera to the p7NC protein (FIG. 2(A)). […] Thus, 624151 effectively entered and inactivated cell-free HIV-1 virions by chemically attacking the p7NC CCHC zinc fingers and promoting cross-linkage among the p7NC proteins.

[3] = non-reducing SDS-PAGE, in words

Q: How did the EC50 (HIV-1 6R(AZT^R)) turn out when `O=S1(=O)C[C@H](O)[C@H](O)CS1` (relative stereo) [NSC 624151, cis-1,1-dioxo[1,2]dithiane-4,5-diol] was run?
A: Its EC50 is 7.2 µM.

Q: And the EC50 (HIV-1 N119(Nev^R))?
A: The EC50 was 18 µM.

Q: And the EC50 (HIV-1 Calo-139)?
A: Its EC50 is 15 µM.

Q: What about the EC50 (HIV-1 DPS-181) of the same compound?
A: Its EC50 is 16.5 µM.

Q: What about the EC50 (HIV-1 HEPT-236) of the same compound?
A: Its EC50 is 16 µM.

Q: And the EC50 (HIV-1 OC-100)?
A: The EC50 was 12.7 µM.

Q: And the EC50 (HIV-1 UC38-181)?
A: The EC50 was 17 µM.

Q: And the Attachment ([1]; Table 6)?
A: The Attachment was “NI100μμ”.

Q: And the “inhibition of attachment of HIV-1 virions to target cells” value ([1]; in words)?
A: Its value is “did not inhibit”.

Q: What about the “detectable virion p7NC / cross-linkage of virion NC proteins” value [2, 3] of the same compound?
A: Its value is “enter intact virions and cause disulfide cross-linkage between virion NC proteins”.

Q: And the “detectable virion p7NC / cross-linkage of virion NC proteins” value ([2]; non-reducing SDS-PAGE, in words, listed as 624151)?
A: Its value is “decreases in the amounts of detectable virion p7NC”.

Q: What about the “interactions with other viral proteins” value [2, 3] of the same compound?
A: Its value is “no interactions with other proteins was observed”.

Q: What about the “virion p7NC profile under reducing conditions” value ([2]; reducing conditions (not shown)) of the same compound?
A: The value was “no alterations in the virion p7NC profile were observed”.
